One data set relates to RPMI-8226 myeloma cells. The data set can be described thus: [3H]-thymidine incorporation assay. It counts as cell-based, human. On the procedure:
(§1) RPMI 8226 cells were grown in 96 well plates for 24 h prior to addition of 2-methoxy Antimycins. Antimycin stocks in DMSO were serially diluted in RPMI media. Cells were incubated for 48 h with compounds at final compound concentrations ranging from 10^−4 to 10^−8 M. MTT assays were performed in quadruplicate and percent growth inhibitions were calculated as (A570 (control cells)—A570 (treated cells))/A570 (control cells). The GI50 was extrapolated from semi-log plots of the dose response for each compound. […] After 72 h drug exposures, 1 μCi/ml [^3H]-thymidine was added to wells. Cells were incubated for an additional 24 h, and then transferred to GF/C filter plates (Packard) using a plate washer. Filters were dried, added to scintillant, and counted in a TopCount scintillation counter (Packard). Drug response was expressed as the percentage of vehicle-treated controls, and each value shown as the average of three determinations.

In a further data set the test system is U266 myeloma cells. The data set can be described thus: [3H]-thymidine incorporation assay. It counts as cell-based, human. The following applies: 72 h drug exposure. The method, then:
as §1
Background: Uptake of a labelled nucleoside into DNA is a usual measure of proliferation.

The test system of a further data set is NCI-H929 myeloma cells. Description: [3H]-thymidine incorporation assay. The format is cell-based, human. The following applies: 72 h drug exposure. The method, then: as §1
The subject of data set [1] is RPMI-8226 human myeloma xenografts in NOD/SCID mice. The data set can be described thus: RPMI-8226 tumor xenografts. It counts as in vivo, mouse. The method, then: Six to nine-week old Nod/Les2 Scid/J mice were inoculated with 3×10^7 RPMI-8226 cells by interscapular subcutaneous injection. Mice were maintained under specific pathogen-free conditions. Palpable tumor nodules were measured in two dimensions with calipers and tumor volumes calculated in mm^3 as (length×width^2)/2. Blood samples were collected by retro-orbital bleed for human light chain measurements by ELISA with lambda-specific antibody and horseradish peroxidase detection (BD Biosciences). Animals were sacrificed by halothane inhalation, and histologic examination of tumors and internal organs was performed. All experiments were approved by the Fred Hutchison Cancer Research Center Institutional Animal Care and Use Committee.
2-OMe antimycin A1 was synthesized from antimycin A1 (Sigma) (comprising about 80% antimycin Ala and about 20% A1b) and dissolved in phosphate-buffered saline with 20% Cremaphor, 25% ethanol (3 mg/ml) for parenteral administration by tail vein injection in a total volume of 100 μl. Control mice received injections of Cremaphor/ethanol vehicle.
Tissues were fixed in 10% buffered formalin, embedded in paraffin, sectioned and stained with hematoxylin and eosin. TUNEL staining was performed using 0.3 units/ml terminal deoxynucleotidyl transferase and biotinylated dATP with development by avidin-biotin peroxidase method. BCl-xL immunohistochemistry was performed using anti-Bcl-xL antibody (BD Biosciences) followed by biotinylated secondary antibody and peroxidase-labeled ABC reagent (Vector, Burlingame Calif.).
To determine whether 2-OMeA, has anti-tumor activity in vivo, a total of 12 NOD/SCID mice in three experiments were inoculated with 3×10^7 RPMI-8226 human myeloma cells by interscapular subcutaneous injection. […] In total, six mice received three intravenous doses of 10 mg/kg 2-OMeA1 on alternate days starting on day 6. Six control mice received injections of Cremaphor/ethanol vehicle without drug.

The test system of a further data set is RPMI-8226 cells. Description: GI50 assay (MTT). The format is cell-based, human. The following applies: 48 h, MTT. The method, then:
as §1

In data set [2] the test system is TABX2S cells (over-expressing Bcl-xL). The data set can be described thus: cells. The source says:
Briefly, a DNA fragment encoding the full-length mouse BCl-xL cDNA was isolated from the plasmid PBS.BCL-xL (Tzung et al., Am. J. Path. 150:1985-1995, 1997, incorporated herein by reference in its entirety) by digestion with the restriction endonuclease EcoRI. This EcoRI fragment was cloned into the EcoRI site of the mammalian expression vector pSFFV (Fuhlbrigge et al., Proc. Nat. Acad. Sci. USA 85:5649-5653, 1988) in both sense and antisense orientations, to form expression plasmids pSFFV.Bcl-xL(sense) or pSFFV.Bcl-xL(antisense), respectively. The tumorigenic murine hepatocyte cell line TAMH was transfected by lipofection (Lipofectamine, Life Technologies, Rockville, Md., according to the manufacturer's recommendations) with the plasmids pSFFV.neo (the control), pSFFV.Bcl-xL(sense) or pSFFV.Bcl-xL(antisense). […] Transfectants were selected for the acquisition of neomycin resistance by growing cells in the presence of 750 μg/ml of G418. Bulk transfectants were cloned by limiting dilution and individual clones were screened by immunoblot analysis to determine the level of BCl-xL protein expression as described below.
Selected transfectants were then tested for whole cell sensitivity to several apoptotic agents. Transfected cells were cultured to reach approximately 80% confluency prior to plating an equal number of cells from selected clones on 12-well tissue culture plates. The transplanted cells were treated with the following apoptotic agents: 5 μM doxorubicin for 48 hours; 5 μM cisplatin for 48 hours; or with 200 U/ml tumor necrosis factor (TNF) plus 1 μg/ml actinomycin D for 18 hours. Cell viability was determined by trypan blue dye exclusion. The percentage of viable cells was calculated by the number of viable cells (treated with a particular apoptogenic agent) divided by the number in the control group (untreated).
TABX2S cells and TABX1A cells were also examined for the effects of various mitochondrial inhibitors. […] Azide was diluted from an aqueous stock solution. […] Controls received an equivalent concentration of diluent. At various time points after drug treatment, cells were trypsinized, and cell viability was determined by trypan blue dye exclusion. The number of viable cells were counted and normalized to control group (i.e., % control=number of viable cells (treated group)/number of viable cells (control group)×100).

Data set [3] concerns mitochondria from TABX2S cells (high levels of Bcl-xL). The data set can be described thus: JC-1 membrane potential of isolated mitochondria. Details: species or system murine. On the procedure: Isolated mitochondria were loaded with JC-1 prior to treatment, and mitochondrial labeling was determined using FACS. […] Antimycin A-treated mitochondria with high levels of Bcl-xL had lower levels of JC-1 staining than parallel samples treated with CCCP. Uncoupled mitochondria still retain a significant Donnan potential because of trapped anionic species and it is likely that antimycin-induced PT and/or swelling of mitochondria led to a further reduction of this residual potential.
As observed for the parent compound, antimycin A3, mitochondria with normal levels of BCl-xL expression were not affected by the 2-methoxy analog.

This note sets out measurements from patent US20050239873A1 (priority 1999, published 2005).

By IC50 is commonly meant the concentration at which inhibition is half-maximal. A lower IC50 goes with inhibition by little substance. On to 2-methoxy antimycin A [2-OMeA], for which the IC50 in the data set with RPMI-8226 myeloma cells (72 h drug exposure) was 15 µg/mL; in the data set on U266 myeloma cells, 5 µg/mL; with NCI-H929 myeloma cells, 10 µg/mL. For the same compound, in the data set with RPMI-8226 myeloma cells (RPMI-8226, U266 and NCI-H929), the “IC50 relative to antimycin A” value is on record as 100 fold. Also, the “treated mice with regression of tumor nodules” value in data set [1] (second round, 10 mg/kg alternate days, days 26 through 31) was 6/6.
Broadly, the GI50 is the concentration at which growth is held to half of that of the control. A higher GI50 goes with less potent growth inhibition. In the case of `CCCCCC[C@H]1C(=O)O[C@H](C)[C@H](NC(=O)c2cccc(NC=O)c2OC)C(=O)O[C@@H](C)[C@@H]1OC(=O)CC(C)C` [2-OMeA1, 2-methoxy antimycin A1], the “time to regression of early and large nodules” value in data set [1] (10 mg/kg intravenously) is given as “within the first week”. The tumor sections entry in data set [1] (24 and 48 h after a single 10 mg/kg intravenous treatment) is listed as “widespread apoptosis”. For the same compound, the “average reduction of serum levels of human light chain” value in data set [1] (after the third injection, 10 mg/kg intravenous on alternate days) was 87%. Besides, the “mice with tumor regression during treatment” value in data set [1] (three intravenous doses of 10 mg/kg on alternate days starting on day 6) is recorded as “Five of six”. Besides, in data set [1] (two tumor-bearing control mice, 10 mg/kg on days 43, 46 and 48), the “effect of delayed treatment on tumor nodules” value was “regression of tumor nodules”. Further, in the data set on RPMI-8226 cells, the GI50 was 8.56 µM.
On to `CCCC[C@H]1C(=O)OC(C)[C@H](NC(=O)c2cccc(NC=O)c2OC)C(=O)O[C@@H](C)C1OC(=O)CC(C)C` (some centres unmarked) [2-OMeA3, Antimycin A3 methyl ether], for which, in data set [2] (TABX2S vs TAMH.neo and TABX1A), the “cytotoxicity for cells over-expressing Bcl-xL vs control cells” value is listed as “selective cytotoxicity”. The same compound had a GI50 in the data set with RPMI-8226 cells (Homo sapiens, RPMI-8226) of 10.2 µM. Moreover, the “mitochondrial depolarization (JC-1)” value in data set [3] (2 μg/ml) was “strongly depolarized”.
In data set [2] (2 μg/ml, supplemented with fructose, six hours), antimycin A registered a survival of 33%. For the same compound, the “time until cell death readily apparent” value in data set [2] (after addition to the cell culture) was at most 2 h. For the same compound, the “50% growth inhibition (GI50)” value with RPMI-8226 myeloma cells (72 h drug exposure) came out at 0.1 µg/mL; in the data set with U266 myeloma cells it was 0.05 µg/mL; in the data set on NCI-H929 myeloma cells, 0.2 µg/mL. For the same compound, the “decrease in ΔΨm (JC-1)” value in data set [3] (vs control mitochondria (TABX1A)) was “much greater decrease in ΔΨm”.
